Row | melting point [°C] | Compound
1 | 127 to 128 | O=c1cccnn1-c1ccc2nc([C@H]3C[C@@H](N4CCCCC4)C3)sc2c1 [Example 48B, Cis-2-[2-(3-piperidin-1-ylcyclobutyl)-1,3-benzothiazol-6-yl]pyridazin-3(2H)-one]
2 | 139 to 140 | O=c1cccnn1-c1ccc2nc([C@H]3C[C@H](N4CCCCC4)C3)sc2c1 [Example 48A, Trans-2-[2-(3-piperidin-1-ylcyclobutyl)-1,3-benzothiazol-6-yl]pyridazin-3(2H)-one]
